{"source": "patent US20180000085A1", "about": "“USE OF PICOLINAMIDE COMPOUNDS WITH FUNGICIDAL ACTIVITY” (DOW AGROSCIENCES LLC, priority 2014, published 2018)", "key": {"Puccinia triticina": {"tested_on": "Puccinia triticina", "experiment": "Wheat brown rust (PUCCRT) disease control on wheat seedlings", "type": "in vivo", "set-up": "key to PUCCRT 3DC, HV activity at 100 ppm (% control rating) / PUCCRT disease control, 3DC / PUCCRT 1DP disease control rating, HV activity / PUCCRT 3DC disease control rating, HV activity / PUCCRT 3DC, LV activity at 125.1 g/H (% Control rating) / PUCCRT 1DP, LV activity at 125.1 g/H (% Control rating) / PUCCRT 3DC disease control rating, LV activity at 125.1 g/H / PUCCRT 1DP disease control rating, LV activity at 125.1 g/H / PUCCRT 3DC disease control rating, HV activity at 100 ppm / PUCCRT 1DP disease control rating, HV activity at 100 ppm / HV activity at 100 ppm PUCCRT 3DC (disease control rating) / LV activity at 125.1 g/H PUCCRT 1DP (disease control rating) / LV activity at 125.1 g/H PUCCRT 3DC (disease control rating): A: > 80; B: ≤ 80; C: Not Tested; D: No Activity Observed in the Reported Assay", "settings": "for PUCCRT 1DP, LV activity at 125.1 g/H (% Control rating) / PUCCRT 1DP disease control rating, HV activity / LV activity at 125.1 g/H PUCCRT 1DP (disease control rating): 1 Day Protectant; for PUCCRT 3DC, LV activity at 125.1 g/H (% Control rating) / PUCCRT 3DC disease control rating, HV activity / LV activity at 125.1 g/H PUCCRT 3DC (disease control rating): 3 Day Curative; for PUCCRT 1DP disease control rating, HV activity / PUCCRT 3DC disease control rating, HV activity: HV application at 100 ppm; for PUCCRT 1DP disease control rating, HV activity / PUCCRT 3DC disease control rating, HV activity / LV activity at 125.1 g/H PUCCRT 1DP (disease control rating) / LV activity at 125.1 g/H PUCCRT 3DC (disease control rating): wheat brown rust"}, "Zymoseptoria tritici": {"tested_on": "Zymoseptoria tritici", "experiment": "Leaf blotch of wheat (SEPTTR) disease control on wheat seedlings", "type": "in vivo", "set-up": "key to SEPTTR 1DP, HV activity at 100 ppm (% control rating) / SEPTTR 3DC, HV activity at 100 ppm (% control rating) / SEPTTR disease control, 1DP / SEPTTR disease control, 3DC / SEPTTR 1DP disease control rating, HV activity / SEPTTR 3DC disease control rating, HV activity / SEPTTR 3DC, LV activity at 125.1 g/H (% Control rating) / SEPTTR 1DP, LV activity at 125.1 g/H (% Control rating) / SEPTTR 1DP disease control rating, LV activity at 125.1 g/H / SEPTTR 3DC disease control rating, LV activity at 125.1 g/H / SEPTTR 3DC disease control rating, HV activity at 100 ppm / SEPTTR 1DP disease control rating, HV activity at 100 ppm / HV activity at 100 ppm SEPTTR 3DC (disease control rating) / HV activity at 100 ppm SEPTTR 1DP (disease control rating) / LV activity at 125.1 g/H SEPTTR 1DP (disease control rating) / LV activity at 125.1 g/H SEPTTR 3DC (disease control rating): A: > 80; B: ≤ 80; C: Not Tested; D: No Activity Observed in the Reported Assay", "settings": "for SEPTTR 1DP, LV activity at 125.1 g/H (% Control rating) / SEPTTR 1DP disease control rating, HV activity / LV activity at 125.1 g/H SEPTTR 1DP (disease control rating): 1 Day Protectant; for SEPTTR 3DC, LV activity at 125.1 g/H (% Control rating) / SEPTTR 3DC disease control rating, HV activity / LV activity at 125.1 g/H SEPTTR 3DC (disease control rating): 3 Day Curative; for SEPTTR 1DP disease control rating, HV activity / SEPTTR 3DC disease control rating, HV activity: HV application at 100 ppm; for SEPTTR 1DP disease control rating, HV activity / SEPTTR 3DC disease control rating, HV activity / LV activity at 125.1 g/H SEPTTR 1DP (disease control rating) / LV activity at 125.1 g/H SEPTTR 3DC (disease control rating): wheat leaf blotch"}, "[1]": {"settings": "low volume application, 125.1 g/H"}, "[2]": {"settings": "high volume application, 100 ppm, 1 day protectant"}, "[3]": {"settings": "high volume application, 100 ppm, 3 day curative"}, "[4]": {"settings": "low volume application, 125.1 g/H, 1 day protectant"}, "[5]": {"settings": "low volume application, 125.1 g/H, 3 day curative"}}, "data": [{"molecule": "CCCO[C@@H]([C@H](C)OC(=O)[C@H](C)NC(=O)c1nccc(OC)c1OCOC(=O)COCC)[C@H](CC)Oc1ccccc1", "note": "[Cmpd 512, (S)-(2S,3S,4S)-4-phenoxy-3-propoxyhexan-2-yl-2-(3-((2-ethoxyacetoxy)methoxy)-4-methoxypicolinamido)propanoate]", "values": [{"measurement": "PUCCRT 1DP, LV activity at 125.1 g/H (% Control rating)", "setting": "Puccinia triticina; [1]", "value": "A (> 80)"}, {"measurement": "PUCCRT 3DC, LV activity at 125.1 g/H (% Control rating)", "setting": "Puccinia triticina; [1]", "value": "A (> 80)"}, {"measurement": "SEPTTR 1DP, LV activity at 125.1 g/H (% Control rating)", "setting": "Zymoseptoria tritici; [1]", "value": "B (≤ 80)"}, {"measurement": "SEPTTR 3DC, LV activity at 125.1 g/H (% Control rating)", "setting": "Zymoseptoria tritici; [1]", "value": "A (> 80)"}]}, {"molecule": "COc1ccnc(C(=O)N[C@@H](C)C(=O)O[C@@H](C)[C@H](Oc2ccccc2)C2CC2)c1O", "note": "[Cmpd 1016]", "values": [{"measurement": "PUCCRT 1DP disease control rating, HV activity at 100 ppm", "setting": "Puccinia triticina; [2]", "value": "A (> 80)"}, {"measurement": "PUCCRT 3DC disease control rating, HV activity at 100 ppm", "setting": "Puccinia triticina; [3]", "value": "A (> 80)"}, {"measurement": "SEPTTR 1DP disease control rating, HV activity at 100 ppm", "setting": "Zymoseptoria tritici; [2]", "value": "B (≤ 80)"}, {"measurement": "SEPTTR 3DC disease control rating, HV activity at 100 ppm", "setting": "Zymoseptoria tritici; [3]", "value": "B (≤ 80)"}]}, {"molecule": "C=CCC(Oc1ccccc1)C(C)OC(=O)C(C)NC(=O)c1nccc(OC)c1O", "note": "(centres unmarked) [Cmpd 437]", "values": [{"measurement": "PUCCRT 1DP disease control rating, HV activity", "setting": "Puccinia triticina", "value": "A (> 80)"}, {"measurement": "PUCCRT 3DC disease control rating, HV activity", "setting": "Puccinia triticina", "value": "A (> 80)"}, {"measurement": "SEPTTR 1DP disease control rating, HV activity", "setting": "Zymoseptoria tritici", "value": "B (≤ 80)"}, {"measurement": "SEPTTR 3DC disease control rating, HV activity", "setting": "Zymoseptoria tritici", "value": "A (> 80)"}]}, {"molecule": "CCOc1ccnc(C(=O)NC(C)C(=O)OC(C)C(CC(C)C)Oc2ccc(C)cc2Cl)c1OC(C)=O", "note": "(centres unmarked) [Cmpd 1098]", "values": [{"measurement": "LV activity at 125.1 g/H PUCCRT 1DP (disease control rating)", "setting": "Puccinia triticina; [1]", "value": "D"}, {"measurement": "LV activity at 125.1 g/H PUCCRT 3DC (disease control rating)", "setting": "Puccinia triticina; [1]", "value": "B (≤ 80)"}, {"measurement": "LV activity at 125.1 g/H SEPTTR 1DP (disease control rating)", "setting": "Zymoseptoria tritici; [1]", "value": "D"}, {"measurement": "LV activity at 125.1 g/H SEPTTR 3DC (disease control rating)", "setting": "Zymoseptoria tritici; [1]", "value": "D"}]}, {"molecule": "COc1ccnc(C(=O)N[C@@H](C)C(=O)O[C@@H](C)[C@H](Oc2ccccc2)C(C)(C)C)c1OC(C)=O", "note": "[Cmpd 1065]", "values": [{"measurement": "LV activity at 125.1 g/H PUCCRT 1DP (disease control rating)", "setting": "Puccinia triticina; [1]", "value": "A (> 80)"}, {"measurement": "LV activity at 125.1 g/H PUCCRT 3DC (disease control rating)", "setting": "Puccinia triticina; [1]", "value": "A (> 80)"}, {"measurement": "LV activity at 125.1 g/H SEPTTR 1DP (disease control rating)", "setting": "Zymoseptoria tritici; [1]", "value": "B (≤ 80)"}, {"measurement": "LV activity at 125.1 g/H SEPTTR 3DC (disease control rating)", "setting": "Zymoseptoria tritici; [1]", "value": "A (> 80)"}]}, {"molecule": "CCC(CC)[C@@H](Oc1cc(F)ccc1F)[C@H](C)OC(=O)[C@H](C)NC(=O)c1nccc(OC)c1OC(C)=O", "note": "[Cmpd 602]", "values": [{"measurement": "PUCCRT 1DP, LV activity at 125.1 g/H (% Control rating)", "setting": "Puccinia triticina; [1]", "value": "A (> 80)"}, {"measurement": "PUCCRT 3DC, LV activity at 125.1 g/H (% Control rating)", "setting": "Puccinia triticina; [1]", "value": "A (> 80)"}, {"measurement": "SEPTTR 1DP, LV activity at 125.1 g/H (% Control rating)", "setting": "Zymoseptoria tritici; [1]", "value": "A (> 80)"}, {"measurement": "SEPTTR 3DC, LV activity at 125.1 g/H (% Control rating)", "setting": "Zymoseptoria tritici; [1]", "value": "A (> 80)"}]}, {"molecule": "COc1ccnc(C(=O)N[C@@H](C)C(=O)O[C@@H](C)[C@H](OCC2CC2)C2CCCCC2)c1OC(C)=O", "note": "[Cmpd 882]", "values": [{"measurement": "PUCCRT 1DP disease control rating, LV activity at 125.1 g/H", "setting": "Puccinia triticina; [4]", "value": "A (> 80)"}, {"measurement": "PUCCRT 3DC disease control rating, LV activity at 125.1 g/H", "setting": "Puccinia triticina; [5]", "value": "A (> 80)"}, {"measurement": "SEPTTR 1DP disease control rating, LV activity at 125.1 g/H", "setting": "Zymoseptoria tritici; [4]", "value": "D"}, {"measurement": "SEPTTR 3DC disease control rating, LV activity at 125.1 g/H", "setting": "Zymoseptoria tritici; [5]", "value": "B (≤ 80)"}]}, {"molecule": "COc1ccnc(C(=O)NC(C)C(=O)OC(C)C(Oc2ccc(-c3ccccc3)cc2)C(C)C)c1O", "note": "(centres unmarked) [Cmpd 388]", "values": [{"measurement": "PUCCRT 1DP disease control rating, HV activity", "setting": "Puccinia triticina", "value": "A (> 80)"}, {"measurement": "PUCCRT 3DC disease control rating, HV activity", "setting": "Puccinia triticina", "value": "B (≤ 80)"}, {"measurement": "SEPTTR 1DP disease control rating, HV activity", "setting": "Zymoseptoria tritici", "value": "A (> 80)"}, {"measurement": "SEPTTR 3DC disease control rating, HV activity", "setting": "Zymoseptoria tritici", "value": "B (≤ 80)"}]}, {"molecule": "CC[C@H](Cc1ccc(F)cc1)[C@@H](Oc1ccccc1)[C@H](C)OC(=O)[C@H](C)NC(=O)c1nccc(OC)c1OC(C)=O", "note": "[Cmpd 469]", "values": [{"measurement": "PUCCRT 1DP, LV activity at 125.1 g/H (% Control rating)", "setting": "Puccinia triticina; [1]", "value": "A (> 80)"}, {"measurement": "PUCCRT 3DC, LV activity at 125.1 g/H (% Control rating)", "setting": "Puccinia triticina; [1]", "value": "A (> 80)"}, {"measurement": "SEPTTR 1DP, LV activity at 125.1 g/H (% Control rating)", "setting": "Zymoseptoria tritici; [1]", "value": "A (> 80)"}, {"measurement": "SEPTTR 3DC, LV activity at 125.1 g/H (% Control rating)", "setting": "Zymoseptoria tritici; [1]", "value": "A (> 80)"}]}, {"molecule": "COc1ccnc(C(=O)N[C@@H](C)C(=O)O[C@@H](C)[C@H](Oc2cccc(Cl)c2)C(C)C)c1O", "note": "[Cmpd 357]", "values": [{"measurement": "PUCCRT 1DP disease control rating, HV activity", "setting": "Puccinia triticina", "value": "A (> 80)"}, {"measurement": "PUCCRT 3DC disease control rating, HV activity", "setting": "Puccinia triticina", "value": "A (> 80)"}, {"measurement": "SEPTTR 1DP disease control rating, HV activity", "setting": "Zymoseptoria tritici", "value": "A (> 80)"}, {"measurement": "SEPTTR 3DC disease control rating, HV activity", "setting": "Zymoseptoria tritici", "value": "A (> 80)"}]}, {"molecule": "CCC(C)C(NC(=O)c1nccc(OC)c1O)C(=O)OC(C)C(Oc1ccc(C(F)(F)F)cc1)C(C)C", "note": "(centres unmarked) [Cmpd 396]", "values": [{"measurement": "PUCCRT 1DP disease control rating, HV activity", "setting": "Puccinia triticina", "value": "B (≤ 80)"}, {"measurement": "PUCCRT 3DC disease control rating, HV activity", "setting": "Puccinia triticina", "value": "D"}, {"measurement": "SEPTTR 1DP disease control rating, HV activity", "setting": "Zymoseptoria tritici", "value": "B (≤ 80)"}, {"measurement": "SEPTTR 3DC disease control rating, HV activity", "setting": "Zymoseptoria tritici", "value": "B (≤ 80)"}]}]}
